Source: paper PMC11845477, “Exploring the principles behind antibiotics with limited resistance” (Nature Communications, 2025)

How the values were obtained:
[1] = tested on: A. baumannii ATCC 17978 (SEN) and A. baumannii ATCC BAA-1605 (MDR); assay: Adaptive laboratory evolution (ALE), relative MIC of evolved lines; type: cell-based, Acinetobacter baumannii
Method in brief: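 Ten parallel populations per antibiotic–ancestor pair were evolved in MHB at 37 °C, starting near 50% growth-inhibiting drug. Every 72 h they were passaged into 0.5–2.5× increasing concentrations, keeping the highest-drug well with OD600 > 0.2.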

[2] = tested on: E. coli ATCC 25922 (SEN) and E. coli NCTC13846 (MDR); assay: Frequency-of-resistance (FoR) assay, relative MIC of mutants; type: cell-based, Escherichia coli
Method in brief: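 First-step resistance is selected by exposing roughly 10^10 cells to each antibiotic on agar for 48 h at 37 °C. Ten colonies from the highest selective concentration then undergo MIC testing by OD600 in MHB, reported relative to the ancestral strain.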

[3] = AB-MDR (Acinetobacter baumannii ATCC BAA 1605), evolved line 2
[4] = AB-MDR (Acinetobacter baumannii ATCC BAA 1605), evolved line 5
[5] = AB-MDR (Acinetobacter baumannii ATCC BAA 1605), evolved line 7
[6] = AB-MDR (Acinetobacter baumannii ATCC BAA 1605), evolved line 9
[7] = AB-MDR (Acinetobacter baumannii ATCC BAA 1605), evolved line 10
[8] = AB-SEN (Acinetobacter baumannii ATCC 17978), evolved line 4
[9] = AB-SEN (Acinetobacter baumannii ATCC 17978), evolved line 6
[10] = AB-SEN (Acinetobacter baumannii ATCC 17978), evolved line 8
[11] = AB-SEN (Acinetobacter baumannii ATCC 17978), evolved line 9
[12] = AB-SEN (Acinetobacter baumannii ATCC 17978), evolved line 10

## CC(C)c1ccc(Cn2ccc3c4c(N)nc(NC5CC5)nc4ccc32)cc1 [SCH79797]
[1]; AB-MDR (A. baumannii ATCC BAA 1605), evolved line 2 of the given antibiotic
  MIC of evolved line: 8 µg/mL
[1]; AB-MDR (A. baumannii ATCC BAA 1605), evolved line 2 vs ancestor
  Relative MIC: 2
[1]; AB-MDR (A. baumannii ATCC BAA 1605), evolved line 5 of the given antibiotic
  MIC of evolved line: 8 µg/mL
[1]; AB-MDR (A. baumannii ATCC BAA 1605), evolved line 5 vs ancestor
  Relative MIC: 2
[1]; AB-MDR (A. baumannii ATCC BAA 1605), evolved line 7 of the given antibiotic
  MIC of evolved line: 16 µg/mL
[1]; AB-MDR (A. baumannii ATCC BAA 1605), evolved line 7 vs ancestor
  Relative MIC: 4
[1]; AB-MDR (A. baumannii ATCC BAA 1605), evolved line 9 of the given antibiotic
  MIC of evolved line: 8 µg/mL
[1]; AB-MDR (A. baumannii ATCC BAA 1605), evolved line 9 vs ancestor
  Relative MIC: 2
[1]; AB-MDR (A. baumannii ATCC BAA 1605), evolved line 10 of the given antibiotic
  MIC of evolved line: 8 µg/mL
[1]; AB-MDR (A. baumannii ATCC BAA 1605), evolved line 10 vs ancestor
  Relative MIC: 2
[1]; [3]
  Relative MIC: 2
  Relative MIC (log10): 0.301 log10
[1]; [4]
  Relative MIC: 2
  Relative MIC (log10): 0.301 log10
[1]; [5]
  Relative MIC: 4
  Relative MIC (log10): 0.6021 log10
[1]; [6]
  Relative MIC: 2
  Relative MIC (log10): 0.301 log10
[1]; [7]
  Relative MIC: 2
  Relative MIC (log10): 0.301 log10
[1]; AB-SEN (A. baumannii ATCC 17978), evolved line 2 of the given antibiotic
  MIC of evolved line: 4 µg/mL
[1]; AB-SEN (A. baumannii ATCC 17978), evolved line 2 vs ancestor
  Relative MIC: 1
[1]; AB-SEN (A. baumannii ATCC 17978), evolved line 4 of the given antibiotic
  MIC of evolved line: 8 µg/mL
[1]; AB-SEN (A. baumannii ATCC 17978), evolved line 4 vs ancestor
  Relative MIC: 2
[1]; AB-SEN (A. baumannii ATCC 17978), evolved line 6 of the given antibiotic
  MIC of evolved line: 8 µg/mL
[1]; AB-SEN (A. baumannii ATCC 17978), evolved line 6 vs ancestor
  Relative MIC: 2
[1]; AB-SEN (A. baumannii ATCC 17978), evolved line 8 of the given antibiotic
  MIC of evolved line: 8 µg/mL
[1]; AB-SEN (A. baumannii ATCC 17978), evolved line 8 vs ancestor
  Relative MIC: 2
[1]; AB-SEN (A. baumannii ATCC 17978), evolved line 9 of the given antibiotic
  MIC of evolved line: 8 µg/mL
[1]; AB-SEN (A. baumannii ATCC 17978), evolved line 9 vs ancestor
  Relative MIC: 2
[1]; AB-SEN (A. baumannii ATCC 17978), evolved line 10 of the given antibiotic
  MIC of evolved line: 8 µg/mL
[1]; AB-SEN (A. baumannii ATCC 17978), evolved line 10 vs ancestor
  Relative MIC: 2
[1]; AB-SEN (Acinetobacter baumannii ATCC 17978), evolved line 2
  Relative MIC: 1
[1]; [8]
  Relative MIC: 2
  Relative MIC (log10): 0.301 log10
[1]; [9]
  Relative MIC: 2
  Relative MIC (log10): 0.301 log10
[1]; [10]
  Relative MIC: 2
  Relative MIC (log10): 0.301 log10
[1]; [11]
  Relative MIC: 2
  Relative MIC (log10): 0.301 log10
[1]; [12]
  Relative MIC: 2
  Relative MIC (log10): 0.301 log10
[1]; ALE, Acinetobacter baumannii ATCC 17978 (AB-SEN), evolved line 2
  Relative MIC: 1
[1]; ALE, Acinetobacter baumannii ATCC 17978 (AB-SEN), evolved line 4
  Relative MIC: 2
[1]; ALE, Acinetobacter baumannii ATCC 17978 (AB-SEN), evolved line 6
  Relative MIC: 2
[1]; ALE, Acinetobacter baumannii ATCC 17978 (AB-SEN), evolved line 8
  Relative MIC: 2
[1]; ALE, Acinetobacter baumannii ATCC 17978 (AB-SEN), evolved line 9
  Relative MIC: 2
[1]; ALE, Acinetobacter baumannii ATCC 17978 (AB-SEN), evolved line 10
  Relative MIC: 2
[1]; ALE, Acinetobacter baumannii ATCC BAA 1605 (AB-MDR), evolved line 2
  Relative MIC: 2
[1]; ALE, Acinetobacter baumannii ATCC BAA 1605 (AB-MDR), evolved line 5
  Relative MIC: 2
[1]; ALE, Acinetobacter baumannii ATCC BAA 1605 (AB-MDR), evolved line 7
  Relative MIC: 4
[1]; ALE, Acinetobacter baumannii ATCC BAA 1605 (AB-MDR), evolved line 9
  Relative MIC: 2
[1]; ALE, Acinetobacter baumannii ATCC BAA 1605 (AB-MDR), evolved line 10
  Relative MIC: 2
[1]; Acinetobacter baumannii ATCC 17978 (AB-SEN), evolved line 2
  Relative MIC: 1
[1]; Acinetobacter baumannii ATCC 17978 (AB-SEN), evolved line 4
  Relative MIC: 2
[1]; Acinetobacter baumannii ATCC 17978 (AB-SEN), evolved line 6
  Relative MIC: 2
[1]; Acinetobacter baumannii ATCC 17978 (AB-SEN), evolved line 8
  Relative MIC: 2
[1]; Acinetobacter baumannii ATCC 17978 (AB-SEN), evolved line 9
  Relative MIC: 2
[1]; Acinetobacter baumannii ATCC 17978 (AB-SEN), evolved line 10
  Relative MIC: 2
[1]; Acinetobacter baumannii ATCC BAA 1605 (AB-MDR), evolved line 2
  Relative MIC: 2
[1]; Acinetobacter baumannii ATCC BAA 1605 (AB-MDR), evolved line 5
  Relative MIC: 2
[1]; Acinetobacter baumannii ATCC BAA 1605 (AB-MDR), evolved line 7
  Relative MIC: 4
[1]; Acinetobacter baumannii ATCC BAA 1605 (AB-MDR), evolved line 9
  Relative MIC: 2
[1]; Acinetobacter baumannii ATCC BAA 1605 (AB-MDR), evolved line 10
  Relative MIC: 2
[2]; E. coli ATCC 25922 (EC-SEN), evolved line 1
  MIC of evolved line: 8 µg/mL
[2]; E. coli ATCC 25922 (EC-SEN), evolved line 1, evolved vs ancestor
  Relative MIC: 2
[2]; E. coli ATCC 25922 (EC-SEN), evolved line 2
  MIC of evolved line: 8 µg/mL
[2]; E. coli ATCC 25922 (EC-SEN), evolved line 2, evolved vs ancestor
  Relative MIC: 2
[2]; E. coli ATCC 25922 (EC-SEN), evolved line 3
  MIC of evolved line: 8 µg/mL
[2]; E. coli ATCC 25922 (EC-SEN), evolved line 3, evolved vs ancestor
  Relative MIC: 2
[2]; FoR assay, Escherichia coli ATCC 25922 (EC-SEN), evolved line 1
  Relative MIC: 2
[2]; FoR assay, Escherichia coli ATCC 25922 (EC-SEN), evolved line 2
  Relative MIC: 2
[2]; FoR assay, Escherichia coli ATCC 25922 (EC-SEN), evolved line 3
  Relative MIC: 2
